Test results: US9714231B2, “Pyrrolidine GPR40 modulators” (BRISTOL-MYERS SQUIBB COMPANY, priority 2012, dated 2017)
Structures can show the parent of a compound that is named as a salt.

Biological target: human GPR40 (Homo sapiens, UniProt O14842)
Assay: FDSS-based intracellular calcium assay (Human GRP40 in vitro assay)
Format: cell-based
Parameters: 3xFLAG; expressed in transfected cells
Conditions: cells expressing GPR40, intracellular Ca2+ response, FDSS reader; read-out: hGPR40 EC50
Procedure: To conduct the fluorescent imaging plate reader (FLIPR)-based calcium flux assay to measure intracellular Ca^2+ response, cells expressing GPR40 are plated on 384 well plates (BD BIOCOAT® #356697) at a density of 20,000 cells/20 μL medium per well in phenol red and serum-free DMEM (GIBCO® #21063-029) and incubated overnight. Using BD kit #s 80500-310 or -301, the cells are incubated with 20 μL per well of Hank's buffered salt solution with 1.7 mM probenecid and Fluo-3 at 37° C. for 30 min. Compounds are dissolved in DMSO and diluted to desired concentrations with assay buffer and added to the cells as 3× solution (20 μL per well). Run fluorescence/luminescence reader FDSS (Hamamatsu) to read intracellular Ca^2+ response.

human GPR40, sequence (O14842 whole entry): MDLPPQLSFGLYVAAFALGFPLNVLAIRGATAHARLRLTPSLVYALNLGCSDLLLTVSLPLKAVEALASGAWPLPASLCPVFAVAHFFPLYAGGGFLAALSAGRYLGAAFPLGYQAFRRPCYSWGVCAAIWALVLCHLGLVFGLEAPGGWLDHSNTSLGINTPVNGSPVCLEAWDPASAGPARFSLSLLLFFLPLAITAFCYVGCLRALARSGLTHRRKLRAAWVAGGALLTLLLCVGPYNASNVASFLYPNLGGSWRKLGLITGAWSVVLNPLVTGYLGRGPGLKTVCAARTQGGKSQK

SMILES	EC50
O=C(O)C[C@H]1C[C@@H](C(F)(F)F)CN1c1ccc(OC2CCN(c3ccccc3)CC2)cc1 [Example 22, 2-((2R,4R)-1-(4-((l-Phenylpiperidin-4-yl)oxy)phenyl)-4-(trifluoromethyl)pyrrolidin-2-yl)acetic acid, HCl]	1800 nM
CCOc1ccc(F)c(N2CCC(Oc3ccc(N4C[C@H](C(F)(F)F)C[C@@H]4CC(=O)O)cc3)C(CC)C2)c1 (single isomer, unassigned) [Example 33, Isomer 1, HCl]	1900 nM
COc1cc(N2CCC(Oc3ccc(N4C[C@H](OC)C[C@@H]4CC(=O)O)cc3)CC2)c2nccn2n1 [Example 86, 2-((2R,4R)-4-Methoxy-1-(4-((1-(6-methoxyimidazo[1,2-b]pyridazin-8-yl)piperidin-4-yl)oxy)phenyl)pyrrolidin-2-yl)acetic acid, TFA]	4700 nM
CCOc1ccc(F)c(N2CCC(Oc3ccc(N4C[C@H](C#N)C[C@@H]4CC(=O)O)cc3)CC2)c1 [Example 130, 2-((2R,4R)-4-Cyano-1-(4-((1-(5-ethoxy-2-fluorophenyl)piperidin-4-yl)oxy)phenyl)pyrrolidin-2-yl)acetic acid, TFA]	2100 nM
COc1cc(N2CCC(Oc3cnc(N4C[C@H](OC)[C@@H](C)[C@@H]4CC(=O)O)c(F)c3)C(C)C2)c(Cl)cn1 (stereo partly drawn) [Example 171, 2-((2S,3S,4R)-1-(5-(((3,4-trans)-1-(5-Chloro-2-methoxypyridin-4-yl)-3-methylpiperidin-4-yl)oxy)-3-fluoropyridin-2-yl)-4-methoxy-3-methylpyrrolidin-2-yl)acetic acid]	410 nM
CCOc1ccc(F)c(N2CCC(Oc3ccc(N4C[C@H](Oc5ccccc5C)C[C@@H]4CC(=O)O)cc3)CC2)c1 [Example 67, 2-((2R,4R)-1-(4-(1-(5-Ethoxy-2-fluorophenyl)piperidin-4-yloxy)phenyl)-4-(o-tolyloxy)pyrrolidin-2-yl)acetic acid]	950 nM
COc1ccc(F)c(N2CCC(Oc3ccc(N4C[C@H](Cc5ccccc5)C[C@@H]4CC(=O)O)cc3)CC2)c1 [Example 7, 2-((2R,4R)-4-Benzyl-1-(4-((1-(2-fluoro-5-methoxyphenyl)piperidin-4-yl)oxy)phenyl)pyrrolidin-2-yl)acetic acid, HCl]	320 nM
COc1ccc(F)c(N2CCC(Oc3ccc(N4C[C@H](Cc5ccccc5)C[C@H]4CC(=O)O)cc3)CC2)c1 [Example 8, 2-((2S,4R)-4-Benzyl-1-(4-((1-(2-fluoro-5-methoxyphenyl)piperidin-4-yl)oxy)phenyl)pyrrolidin-2-yl)acetic acid, HCl]	420 nM
COc1ccc(F)c(N2CCC(Oc3ccc(N4C[C@H](C(F)(F)F)C[C@@H]4CC(=O)O)cc3)C2)c1 (single isomer, unassigned) [Example 12, Isomer 2, HCl]	5400 nM
COc1cc(N2CCC(Oc3ccc(N4C[C@H](OC)C[C@@H]4CC(=O)O)cc3)C(C)C2)c(F)cn1 (single isomer, unassigned) [Example 83, Isomer 2]	370 nM
CCOc1ccc(F)c(N2CCC(Oc3ccc(N4C[C@H](Oc5ncccn5)C[C@@H]4CC(=O)O)cc3)CC2)c1 [Example 78, 2-((2R,4R)-1-(4-(1-(5-Ethoxy-2-fluorophenyl)piperidin-4-yloxy)phenyl)-4-(pyrimidin-2-yloxy)pyrrolidin-2-yl)acetic acid, TFA]	1600 nM
COc1cc(N2CCC(Oc3ccc(N4C[C@H](OC)CC4CC(=O)O)c(F)c3F)C(C)C2)c(Cl)cn1 (single isomer, unassigned) [Example 141, Isomer 2]	5600 nM
COc1ccc(F)c(N2CCC(Oc3ccc(N4C[C@H](C(F)(F)F)C[C@@H]4CC(=O)O)cc3)C2)c1 (single isomer, unassigned) [Example 12, Isomer 1, HCl]	2800 nM
COc1cccc(N2CCC(Oc3ccc(N4C[C@H](C(F)(F)F)C[C@@H]4CC(=O)O)cc3)CC2)c1 [Example 19, 2-((2R,4R)-1-(4-((1-(3-Methoxyphenyl)piperidin-4-yl)oxy)phenyl)-4-(trifluoromethyl)pyrrolidin-2-yl)acetic acid, HCl]	680 nM
CO[C@@H]1C[C@H](CC(=O)O)N(c2ccc(OC3CCN(c4cc(OC(F)(F)F)ccc4F)CC3)cc2)C1 [Example 63, 2-((2R,4R)-1-(4-(1-(2-Fluoro-5-(trifluoromethoxy)phenyl)piperidin-4-yloxy)phenyl)-4-methoxypyrrolidin-2-yl)acetic acid, TFA]	2600 nM
CCOc1ccc(F)c(N2CCC(Oc3ccc(N4C[C@H](C(F)(F)F)C[C@@H]4CC(=O)O)cc3)C(CC)C2)c1 (single isomer, unassigned) [Example 33, Isomer 2, HCl]	430 nM
CCOc1ccc(F)c(N2CCC(Oc3ccc(N4C[C@H](n5ccnn5)C[C@@H]4CC(=O)O)cc3)CC2)c1 [Example 81, 2-((2R,4R)-1-(4-(1-(5-Ethoxy-2-fluorophenyl)piperidin-4-yloxy)phenyl)-4-(1H-1,2,3-triazol-1-yl)pyrrolidin-2-yl)acetic acid]	1000 nM
COc1ccc(C2CCC2)c(N2CCC(Oc3ccc(N4C[C@H](OC)C[C@@H]4CC(=O)O)cc3)CC2)c1 [Example 82, 2-((2R,4R)-1-(4-((1-(2-Cyclobutyl-5-methoxyphenyl)piperidin-4-yl)oxy)phenyl)-4-methoxypyrrolidin-2-yl)acetic acid, HCl]	310 nM
CCOc1ccc(F)c(N2CCC(Oc3ccc(N4C[C@H](OC)[C@@H](CC)[C@@H]4CC(=O)O)cc3)CC2)c1 [Example 88, 2-((2S,3S,4R)-1-(4-((1-(5-Ethoxy-2-fluorophenyl)piperidin-4-yl)oxy)phenyl)-3-ethyl-4-methoxypyrrolidin-2-yl)acetic acid, TFA]	250 nM
CCc1c(OC)ccc(F)c1N1CCC(Oc2ccc(N3C[C@H](OC)C[C@@H]3CC(=O)O)cc2)CC1 [Example 31, 2-((2R,4R)-1-(4-((1-(2-Ethyl-6-fluoro-3-methoxyphenyl)piperidin-4-yl)oxy)phenyl)-4-methoxypyrrolidin-2-yl)acetic acid, TFA]	1100 nM

The next compounds have a lower EC50 than those just listed; values first:

EC50	SMILES
160 nM	CCOc1ccc(F)c(N2CCC(Oc3ccc(N4C[C@H](Oc5cccc(Cl)c5)C[C@@H]4CC(=O)O)cc3)CC2)c1 [Example 69, 2-((2R,4R)-4-(3-Chlorophenoxy)-1-(4-(1-(5-ethoxy-2-fluorophenyl)piperidin-4-yloxy)phenyl)pyrrolidin-2-yl)acetic acid]
90 nM	COc1cc(N2CCC(Oc3ccc(N4C[C@H](F)[C@@H](C)[C@@H]4CC(=O)O)cn3)C(C)C2)c(Cl)cn1 (stereo partly shown) [Example 146]
160 nM	COc1cc(N2CCC(Oc3ccc(N4C[C@H](OC)C[C@@H]4CC(=O)O)cn3)C(C)C2)c(C2CCCC2)cn1 (stereo partly drawn) [Example 149, 2-((2R,4R)-1-(6-(((3,4-trans)-1-(5-Cyclopentyl-2-methoxypyridin-4-yl)-3-methylpiperidin-4-yl)oxy)pyridin-3-yl)-4-methoxypyrrolidin-2-yl)acetic acid]
190 nM	COc1ccc(F)c(N2CCC(Oc3ccc(N4C[C@H](Oc5ccccc5)C[C@@H]4CC(=O)O)cc3)CC2)c1 [Example 6, 2-((2R,4R)-1-(4-((1-(2-Fluoro-5-methoxyphenyl)piperidin-4-yl)oxy)phenyl)-4-phenoxypyrrolidin-2-yl)acetic acid, HCl]
210 nM	COc1cc(N2CCC(Oc3ccc(N4C[C@H](C(F)(F)F)C[C@@H]4CC(=O)O)cc3)C(F)C2)c(Cl)cn1 (single isomer, unassigned) [Example 28, Isomer 2, HCl]
85 nM	COc1cc(N2CCC(Oc3ncc(N4C[C@H](OC)[C@@H](C)[C@@H]4CC(=O)O)cc3F)C(C)C2)c(Cl)cn1 (stereo partly drawn) [Example 159, 2-((2S,3S,4R)-1-(6-(((3,4-trans)-1-(5-Chloro-2-methoxypyridin-4-yl)-3-methylpiperidin-4-yl)oxy)-5-fluoropyridin-3-yl)-4-methoxy-3-methylpyrrolidin-2-yl)acetic acid]
130 nM	COc1cc(N2CCC(Oc3ccc(N4C[C@H](OC)[C@@H](C)[C@@H]4CC(=O)O)c(F)c3)CC2)c(Cl)cn1 [Example 112, 2-((2S,3S,4R)-1-(4-((1-(5-Chloro-2-methoxypyridin-4-yl)piperidin-4-yl)oxy)-2-fluorophenyl)-4-methoxy-3-methylpyrrolidin-2-yl)acetic acid]
47 nM	COc1cc(N2CCC(Oc3ncc(N4C[C@H](OC)[C@@H](C)[C@@H]4CC(=O)O)cc3C(F)(F)F)C(C)C2)c(Cl)cn1 (stereo partly drawn) [Example 165, 2-((2S,3S,4R)-1-(6-(((3,4-trans)-1-(5-Chloro-2-methoxypyridin-4-yl)-3-methylpiperidin-4-yl)oxy)-5-(trifluoromethyl)pyridin-3-yl)-4-methoxy-3-methylpyrrolidin-2-yl)acetic acid]
140 nM	COc1ccc(Br)c(N2CCC(Oc3ccc(N4C[C@H](OC)C[C@@H]4CC(=O)O)cc3)CC2)c1 [Example 58, 2-((2R,4R)-1-(4-(1-(2-Bromo-5-methoxyphenyl)piperidin-4-yloxy)phenyl)-4-methoxypyrrolidin-2-yl)acetic acid, TFA]
220 nM	COc1cc(N2CCC(Oc3ccc(N4C[C@H](C)C[C@@H]4CC(=O)O)cn3)C(C)C2)c(Cl)cn1 (stereo partly drawn) [Example 110, 2-((2R,4R)-1-(6-(((3,4-trans)-1-(5-Chloro-2-methoxypyridin-4-yl)-3-methylpiperidin-4-yl)oxy)pyridin-3-yl)-4-methylpyrrolidin-2-yl)acetic acid]
210 nM	COc1ccc(F)c(N2CCC(Oc3ccc(N4C[C@H](c5ccccc5)C[C@@H]4CC(=O)O)cc3)CC2)c1 [Example 3, 2-((2R,4S)-1-(4-((1-(2-Fluoro-5-methoxyphenyl)piperidin-4-yl)oxy)phenyl)-4-phenylpyrrolidin-2-yl)acetic acid, HCl]
